The text below walks through data of PMC8760490, “Discovery of novel furanylbenzamide inhibitors that target oncogenic tyrosine phosphatase SHP2 in leukemia cells” (The Journal of Biological Chemistry, 2021).

The subject of one assay is BT-549 TNBC cells. The assay is described as follows: 11-day colony formation assay, BT-549. The format is cell-based. Particulars: 5, 10 or 20 μM, 11 days. The procedure: (§1) Inhibition of SHP2 has been reported to inhibit the growth of cancer cells including Kasumi-1 acute myeloid leukemia (AML) and KYSE-520 esophageal cancer cells ([30]). […] Thus, we treated two TNBC cell lines, BT-549 and MDA-MB-468, with SBI-4668 or the SHP2 allosteric inhibitor SHP099 at various concentrations and determined cell viability after 72 h, compared with the vehicle control (Fig. 4C). […] Next, we performed an 11-day colony formation assay with TNBC cells treated with SBI-4668 or SHP099 at 5, 10, or 20 μM (Fig. 4D).
(§2) MDA-MB-468 and […] triple-negative breast cancer cells were maintained in Dulbecco's modified Eagle's medium + 10% FBS supplemented with 1× penicillin–streptomycin/L-glutamine (Omega Scientific). About 1500 cells (in 300 μl) were seeded per well of a standard 24-well tissue culture plate (Falcon) and allowed to adhere for 24 h, before the addition of compound(s) as described. After a further 96 h, media were replaced with fresh media containing the same test compounds and concentrations. After 11 days, media were removed, and cells stained with 0.5% crystal violet (in 20% methanol; Sigma) for 20 min with agitation at 80 rpm. Stain was removed, and plates with stained cells were washed by being submerged in excess deionized water and allowed to air dry overnight before imaging.

For assay [1], the system named is MDA-MB-468 TNBC cells. Nature of the assay: TNBC cell viability (CellTiter-Glo), MDA-MB-468. The format is cell-based. Particulars: Homo sapiens, MDA-MB-468; 72 h per text; 5 days per legend and method. The procedure:
as §1
Triple-negative breast cancer cell viability was assessed using the ATP-depletion assay CellTiter-Glo. Briefly, 2500 cells in 25 μl media (RPMI + 10% FBS + 1× penicillin–streptomycin [Omega Scientific]) were seeded per well of a 384-well tissue culture–treated plate (Greiner). About 25 nl of 1000× test compound were added using a Labcyte Echo acoustic dispenser, and the cells were incubated for 5 days before addition of 10 μl of CellTiter-Glo reagent as described by the manufacturer. Luminescence was detected on a BioTek Synergy 2 microplate reader, and the values normalized to those of vehicle (DMSO)-treated controls before being plotted using GraphPad Prism.

For assay [2], the system named is mutant SHP2 (E76K) in live cells. Also on record: method as in PMID 31953320, PMID 32744526. Particulars: cellular thermal shift assay; cited from earlier work.
Assay [3] has as its system MDA-MB-468 TNBC cells. Nature of the assay: 11-day colony formation assay, MDA-MB-468. The class given is cell-based. As to conditions: 5, 10 or 20 μM, 11 days. The procedure:
as §1, §2

Assay [4] relates to phospho-ERK1/2 (p-ERK1/2) in U-937 AML cells. Nature of the assay: p-ERK1/2 immunoblot, U-937. The format is cell-based. Particulars: SBI-4668 1, 3, 10, 30 μM, RMC-4550 1 μM. The source says:
Oncogenic gain-of-function mutations in SHP2 drive leukemogenesis in a significant number of leukemia patients. However, because of their unique mechanism of action, the existing SHP2 allosteric inhibitors lack activity against the most common SHP2 oncogenic variants. Thus, we tested whether our inhibitors could inhibit the growth of leukemia cells expressing oncogenic SHP2 variants. […] Thus, we tested both SBI-4668 and RMC-4550 on U-937 AML cells, which harbor a G60R oncogenic mutation in SHP2. We treated cells with either SBI-4668 or RMC-4550 at various concentrations, ranging from 0.123 to 30 μM (Fig. 5A). […] We also assessed the effects of SBI-4668 and RMC-4550 on ERK1/2 activation in the SHP2 mutant U-937 cell line. Similar to the immunoblot experiments described for MOLM-13 cells above, U-937 AML cells were treated with either vehicle control (DMSO), SBI-4668 (1, 3, 10, or 30 μM), or with RMC-4550 (1 μM) for 24 h and processed for p-ERK1/2 immunoblot analysis (Fig. 5B).
Cells cultured in RPMI medium were treated as indicated in the legends to the figures. […] Densitometric quantitation of immunoblots was performed using Image Studio Lite Software (LI-COR). Changes of phosphorylated ERK1/2 to total ERK1/2 ratios are expressed as percentage of the vehicle-treated controls. […]
In general terms: A western blot detects proteins with antibodies after separation by electrophoresis.

A further assay has as its system MV4-11 AML cells. Nature of the assay: Cell viability (CellTiter-Glo), MV4-11. The class given is cell-based. As to conditions: Homo sapiens, MV4-11, 72 h; 3 days in culture. The procedure:
as §1
Viability of AML and esophageal carcinoma cells was assessed using the ATP-depletion assay CellTiter-Glo (Promega). Cells were harvested at 1 × 10^6/ml to 2 × 10^6 cells/ml with cell numbers determined by trypan blue using the Countess Cell counter (Thermo Scientific) and resuspended in culture media. About 3000 cells (in 20 μl) were seeded in a 384-well format white and clear-bottom microplate (catalog no.: 781098; Greiner) spotted with test compound or vehicle control (DMSO) using an Echo 555 Liquid Handler. Cells were incubated for 3 days, before 10 μl of CellTiter-Glo reagent mix was added to each well and incubated for 10 min at RT. Luminescence was read on a Tecan Spark Multimode Microplate Reader, and data were analyzed using GraphPad Prism software.
(In ATP-based viability assays light output follows the ATP content of the culture.)

Broadly, the pIC50 is the negative decadic logarithm of the IC50, by convention in mol/L.

pIC50: −log10 of the molar value.

Consider `O=C(Nc1ccccc1)c1cc(-c2ccc(/C=C3\Sc4ccccc4C3=O)o2)ccc1O` [SBI-4668, (Z)-2-Hydroxy-5-(5-((3-oxobenzo[b]thiophen-2(3H)-ylidene)methyl)furan-2-yl)-N-phenylbenzamide], for which the “colony formation, BT-549” value in the assay on BT-549 TNBC cells was “undetectable”. The pIC50 in the assay with MDA-MB-468 TNBC cells [1] is 5.60; in the assay on MV4-11 AML cells, 5.09. For the same compound, the “cellular target engagement with mutant SHP2” value in assay [2] was “direct target engagement”. In addition, the “colony formation, MDA-MB-468” value in the assay with MDA-MB-468 TNBC cells [3] was “undetectable”. The “p-ERK1/2 levels, U-937, 24 h” value in assay [4] is “dose-dependently inhibited ERK1/2 activation”.
